Source: publication PMC10828660 (Heliyon, 2024)
One block for each compound: values may come before it.

Experiments:
HepG2 = assay: MTT anti-proliferative assay against HepG2; format: cell-based; settings: Homo sapiens, HepG2, read-out: HepG2 IC50
MCF-7 = assay: MTT anti-proliferative assay against MCF-7; format: cell-based; settings: Homo sapiens, MCF7, read-out: MCF-7 IC50
VEGFR-2 = VEGFR-2 (Homo sapiens, UniProt P35968); assay: biochemical
Vero cells = assay: In vitro safety assay on normal Vero cells; format: cell-based
MCF-7 cells [1] = assay: Cell cycle analysis by flow cytometry; format: cell-based, Human
MCF-7 cells [2] = assay: Annexin-V/propidium iodide apoptosis analysis; format: cell-based, Human
MCF-7 cells [3] = assay: Wound healing; format: cell-based, Human

Sequence of VEGFR-2 (P35968 20-1356): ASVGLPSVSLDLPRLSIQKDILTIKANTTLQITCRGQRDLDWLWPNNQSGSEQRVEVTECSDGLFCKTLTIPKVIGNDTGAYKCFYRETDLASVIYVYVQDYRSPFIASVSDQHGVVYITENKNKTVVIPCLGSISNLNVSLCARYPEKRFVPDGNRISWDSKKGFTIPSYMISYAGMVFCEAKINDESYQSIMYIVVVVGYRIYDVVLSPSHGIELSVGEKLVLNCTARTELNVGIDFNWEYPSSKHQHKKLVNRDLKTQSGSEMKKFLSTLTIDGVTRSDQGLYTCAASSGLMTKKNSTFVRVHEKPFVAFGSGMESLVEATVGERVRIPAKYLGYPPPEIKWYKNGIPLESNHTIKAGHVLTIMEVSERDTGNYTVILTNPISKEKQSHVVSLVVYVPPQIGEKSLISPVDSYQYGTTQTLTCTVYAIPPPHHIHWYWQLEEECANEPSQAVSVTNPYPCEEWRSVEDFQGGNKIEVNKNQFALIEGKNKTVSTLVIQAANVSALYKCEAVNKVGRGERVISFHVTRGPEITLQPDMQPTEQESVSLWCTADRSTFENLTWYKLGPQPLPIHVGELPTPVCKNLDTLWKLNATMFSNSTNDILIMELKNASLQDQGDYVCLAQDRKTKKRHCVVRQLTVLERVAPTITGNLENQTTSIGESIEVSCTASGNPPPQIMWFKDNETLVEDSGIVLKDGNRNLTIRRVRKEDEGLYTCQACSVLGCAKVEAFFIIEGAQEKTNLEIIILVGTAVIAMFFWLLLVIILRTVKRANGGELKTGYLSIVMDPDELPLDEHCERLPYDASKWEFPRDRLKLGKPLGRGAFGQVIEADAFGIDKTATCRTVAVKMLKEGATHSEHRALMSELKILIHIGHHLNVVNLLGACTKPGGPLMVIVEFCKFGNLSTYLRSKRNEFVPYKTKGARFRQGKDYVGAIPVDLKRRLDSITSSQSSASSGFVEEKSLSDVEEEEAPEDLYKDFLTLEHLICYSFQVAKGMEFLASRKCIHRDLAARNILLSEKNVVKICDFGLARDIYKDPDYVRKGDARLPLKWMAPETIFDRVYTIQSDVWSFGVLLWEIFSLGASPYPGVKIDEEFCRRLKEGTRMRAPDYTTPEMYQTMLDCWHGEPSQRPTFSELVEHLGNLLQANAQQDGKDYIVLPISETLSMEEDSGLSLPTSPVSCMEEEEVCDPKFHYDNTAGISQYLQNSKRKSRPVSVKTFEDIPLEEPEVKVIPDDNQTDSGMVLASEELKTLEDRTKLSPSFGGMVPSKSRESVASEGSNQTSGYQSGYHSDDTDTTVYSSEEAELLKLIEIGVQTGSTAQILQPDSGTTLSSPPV

SMILES: O=C(CN1C(=O)SC(=Cc2ccccc2Cl)C1=O)Nc1ccc(C(=O)NNc2ccccc2)cc1 [Compound 18, 2-(5-(2-Chlorobenzylidene)-2,4-dioxothiazolidin-3-yl)-N-(4-(2-phenylhydrazine-1-carbonyl)phenyl)acetamide]
IC50 (HepG2): 4700 ± 100 nM
IC50 (MCF-7): 1760 ± 20 nM
IC50 (VEGFR-2): 2660 ± 112 nM

SMILES: O=C(CN1C(=O)SC(=Cc2ccccc2Cl)C1=O)Nc1ccc(C(=O)NNC(=O)c2ccccc2O)cc1 [Compound 20, 2-(5-(2-Chlorobenzylidene)-2,4-dioxothiazolidin-3-yl)-N-(4-(2-(2-hydroxybenzoyl) hydrazine-1-carbonyl)phenyl)acetamide]
IC50 (HepG2): 1140 ± 30 nM
IC50 (MCF-7): 660 ± 30 nM
IC50 (VEGFR-2): 210 ± 9 nM

SMILES: O=C(CN1C(=O)SC(=Cc2ccc(Cl)cc2Cl)C1=O)Nc1ccc(C(=O)NNC(=O)c2ccccc2)cc1 [Compound 22, N-(4-(2-benzoylhydrazine-1-carbonyl)phenyl)-2-(5-(2,4-dichlorobenzylidene)-2,4-dioxothiazolidin-3-yl)acetamide]
IC50 (HepG2): 2040 ± 60 nM
IC50 (MCF-7): 1210 ± 40 nM
IC50 (VEGFR-2): 79 ± 3 nM
Selectivity index HepG2 (Vero cells; IC50 Vero divided by IC50 HepG2): 1.95
Selectivity index MCF-7 (Vero cells; IC50 Vero divided by IC50 MCF-7): 3.28
Cell cycle arrest phase (MCF-7 cells [1]; MCF-7, 1.21 μM): S phase
Cell cycle distribution G2/M (MCF-7 cells [1]; MCF-7, 1.21 μM for 72 h, control 16.35): 13.77%
Cell cycle distribution S (MCF-7 cells [1]; MCF-7, 1.21 μM for 72 h, control 24.61): 33.84%
Cell cycle distribution G0-G1 (MCF-7 cells [1]; MCF-7, 1.21 μM for 72 h, control 59.04): 52.39%
Increase of early apoptosis compared to untreated cells (MCF-7 cells [2]; MCF-7, 1.21 μM): about 76 times
Increase of late apoptosis compared to untreated cells (MCF-7 cells [2]; MCF-7, 1.21 μM): about 90 fold
Apoptosis Late (Right Top) (MCF-7 cells [2]; MCF-7, 1.21 μM, 72 h, control 0.15): 13.53%
Apoptosis Early (Right Bottom) (MCF-7 cells [2]; MCF-7, 1.21 μM, 72 h, control 0.29): 22.15%
Necrosis (Left Top) (MCF-7 cells [2]; MCF-7, 72 h treatment, control 2.22): 5.34
RM (MCF-7 cells [3]; MCF-7, 48 h, untreated 16.58): 6.16 um
Wound closure (MCF-7 cells [3]; MCF-7, 48 h, untreated 81.62): 30.20 % um^2
Area difference (MCF-7 cells [3]; MCF-7, 48 h, untreated 795.83): 295.83%
Reduction in scratch width (MCF-7 cells [3]; MCF-7, after 48 h, untreated 81.62 %): 30.20%
Scratch width at 48 h (MCF-7 cells [3]; MCF-7, untreated 178.24): 682.93
Scratch area at 48 h (MCF-7 cells [3]; MCF-7, untreated 179.17): 683.83
Scratch width at 24 h (MCF-7 cells [3]; MCF-7, untreated 644.43): 904.16
Scratch area at 24 h (MCF-7 cells [3]; MCF-7, untreated 645.50): 905.17
Scratch width at 0 h (MCF-7 cells [3]; MCF-7, untreated 974.11): 978.78
Scratch area at 0 h (MCF-7 cells [3]; MCF-7, untreated 975.00): 979.67

Continued, values first:

IC50 (HepG2): 3060 ± 20 nM
IC50 (MCF-7): 2290 ± 190 nM
IC50 (VEGFR-2): 323 ± 14 nM
SMILES: O=C(CN1C(=O)SC(=Cc2ccccc2Cl)C1=O)Nc1ccc(C(=O)NNC(=O)c2cccc(Cl)c2)cc1 [Compound 19, N-(4-(2-(3-chlorobenzoyl)hydrazine-1-carbonyl)phenyl)-2-(5-(2-chlorobenzylidene)-2,4dioxothiazolidin-3-yl)acetamide]

IC50 (HepG2): 840 ± 10 nM
IC50 (MCF-7): 680 ± 10 nM
IC50 (VEGFR-2): 1660 ± 70 nM
SMILES: O=C(CN1C(=O)SC(=Cc2ccc(Cl)cc2Cl)C1=O)Nc1ccc(C(=O)Nc2cccc(Cl)c2)cc1 [Compound 21, N-(3-chlorophenyl)-4-(2-(5-(2,4-dichlorobenzylidene)-2,4-dioxothiazolidin-3-yl)acetamido)benzamide]

IC50 (HepG2): 1180 ± 10 nM
IC50 (MCF-7): 950 ± 10 nM
IC50 (VEGFR-2): 328 ± 14 nM
SMILES: O=C(CN1C(=O)SC(=Cc2ccc(Cl)cc2Cl)C1=O)Nc1ccc(C(=O)NNC(=O)c2cccc(Cl)c2)cc1 [Compound 23, N-(4-(2-(3-chlorobenzoyl)hydrazine-1-carbonyl)phenyl)-2-(5-(2,4-dichlorobenzylidene)-2,4-dioxothiazolidin-3-yl)acetamide]

IC50 (HepG2): 600 ± 20 nM
IC50 (MCF-7): 650 ± 10 nM
IC50 (VEGFR-2): 203 ± 9 nM
SMILES: O=C(CN1C(=O)SC(=Cc2ccc(Cl)cc2Cl)C1=O)Nc1ccc(C(=O)NNC(=O)c2ccccc2O)cc1 [Compound 24, 2-(5-(2,4-Dichlorobenzylidene)-2,4-dioxothiazolidin-3-yl)-N-(4-(2-(2-hydroxybenzoyl) hydrazine-1-carbonyl)phenyl)acetamide]
